Data from patent US20260327263A1, “Anti-Bacterial Peptides” (priority 2023, published 2026).
Where “and” joins values, the source holds several entries; their conditions need not be identical. Identical values can stand only once. Entries after “also recorded” stand apart in the source; their conditions may differ. Where no end group is shown, it is not given here.

Tests used:
[1] = system: Staphylococcus aureus (SA); assay: Antimicrobial resistance evolution assay, SA; type: cell-based; details: serial passaging; resistance = >4-fold MIC change
Text: The development of antimicrobial resistance is defined by greater than a 4-fold change to their initial minimum inhibitory concentration (MIC) at day 1. Exemplary bacteria strains Pseudomonas aeruginosa (PA) and Staphylococcus aureus (SA) are subjected to continuous daily serial passaging over several days, with treatment of exemplary variant peptides E1AM2 (SEQ ID NO: 2) and Q19L (SEQ ID NO: […]) at subinhibitory concentrations. […] The treatments were discontinued when the MIC increased by more than four-fold from the initial MIC or when MIC reached >100 μM.
Briefly, sequential passaging of PA, and SA cells was done with sub-inhibitory concentrations of antibiotics or E1AM2 up to 4 weeks. The cells grown in those concentrations of antibiotics or peptides were diluted to A600 nm (OD600) of ~0.2 and serially passaged daily with the same concentrations at 37° C. with agitation at 24 h intervals.

[2] = Hemolysis assay; type: cell-based, human; details: human, red blood cells; at respective MIC/MBC concentrations; melittin 3.125 μM = 100%
Description: The hemolytic score of the peptide variants and pexiganan (SEQ ID NO: 54) are compared to a strong hemolytic peptide, melittin 12 as a control. […] The minimum peptide concentration corresponding to 10% hemolysis (minimal hemolysis concentration, HC) of E1AM2=50 μM, V8LQ19L=12.5 μM, V8LQ19L C-2=3.125 μM, and pexiganan=12.5 μM respectively. Readings of the melittin at 3.125 μM were normalised to 100%.
Examination of hemolytic activity of ultra-short peptides was performed by isolating the red blood cells (RBCs) from human blood samples by centrifugation (1000 g, 4° C., 10 min) and resuspension in 27 mL PBS. This washing step was repeated four times before the RBCs were diluted to a 10% (v/v) suspension. […] Hemolytic properties of E1AM2 and pexiganan were evaluated with melittin used as a positive control, and PBS as a negative control. The plates were incubated at 37° C., for 30 min and then centrifuged (1258 g, 4° C., 6 min). 75 μL of supernatant were transferred into a flat-bottom clear 96-well plate and the OD576 nm was read. Readings of the melittin sample at 3.125 μM were normalized to 100%.

[3] = system: Pseudomonas aeruginosa (PA); assay: Broth microdilution anti-bacterial assay (CLSI), Pseudomonas aeruginosa; type: cell-based, Pseudomonas aeruginosa (ATCC 14213); details: PA; for MIC: overnight, 37° C., ≥99% inhibition; for MBC: ≥99% killing
[4] = system: fibroblasts (HFF-1); assay: Cell proliferation assay, HFF-1 fibroblasts; type: cell-based; details: 24 h
[5] = system: critical and high priority pathogens (WHO); assay: Antibacterial effect against WHO critical and high priority pathogens; type: cell-based; details: FIG. 10
[6] = system: Pseudomonas aeruginosa (PA); assay: Murine excisional wound infection model (PA); type: in vivo, mouse infected with Pseudomonas aeruginosa; details: mouse; 1x MBC (6.25 μM), 24 h treatment, vs PBS; p<0.05
Description: Excisional wounds in mice are infected with Pseudomonas aeruginosa (PA) for 24 hrs followed by 24 hrs of treatment with E1AM2 or PBS. Each circle represents a single mouse. Statistical analysis was performed by the two-tailed t-test using GraphPad, *p<0.05.
Excisional wounds infected with PA for 24 hours being treated for 24 hours with the E1AM2 V8LQ19L hydrogel at its 1X MBC concentration, compared with hydrogel-only treatment in a mouse model. […] Each circle in the graph represents one mouse. Statistical significance was determined using a t-test, with *p<0.05. The data are presented as colony-forming unit counts presented as means±SEM. […] Collectively, the E1AM2 V8LQ19L peptide showcases unique functionality, combining antibacterial effectiveness and biocompatibility for dermal applications.
The murine wound infection model was carried out as described in 4 with minor modifications. Before infection, PA strain was diluted to an OD ~0.5, and normalized to 1-3×10^7 CFU/ml. A 6 mm biopsy punch (Integra Miltex, New York, USA) was used to create a full-thickness wound, and an inoculum of ~10^5 CFU of the bacteria in a 5 μl volume was applied. The wound was sealed with a Finn chamber on a Scanpor tape (Smart Practice, Phoenix, AZ, USA), and the chamber was fixed to the skin via Tegaderm patch (3M™, Minnesota, USA). […]

[7] = system: Pseudomonas aeruginosa PA CRM-9027; assay: Broth microdilution, PA CRM-9027 (ear-eye infections); type: cell-based, Pseudomonas aeruginosa (CRM-9027); details: PA CRM-9027
Description: Bacteria strains involved in lung infection in cystic fibrosis patients (PA-BAA 2110) and ear-eye infections (PA-CRM 9027) are treated with exemplary variant peptides, such as E1AM2 and Q19L.
Examination of the potency of modified short peptides against PA and SA strains was performed by using the broth microdilution protocol from the Clinical and Laboratory Standards Institute (CLSI) guidelines (CLSI 2012) as described. Briefly, five freshly plated bacteria colonies were grown in cation adjusted MH2 broth (BD Biosciences) in a shaker incubator at 37° C., 220 RPM. Cells were grown to an optical density (OD600) of ~0.2 measured using a Microplate Spectrophotometer (Molecular Devices Spectra Max Plus). 100 μL of microbial culture containing ~5×10^5 CFU/mL of bacteria in the respective broths were introduced into each well containing 100 μL of peptides and incubated overnight at 37° C. Next, to check the bactericidal effects, 100 μL from each well was transferred and spread on sterile MH2 agar plates. The plates were incubated overnight at 37° C. and the number of colonies forming units (CFU) were calculated the following day. Readings of bacteria grown in media without any treatments were normalized to 100% as media control. For the mixed infection study, three freshly plated bacteria colonies each from PA, SA and ST plates were grown together in cation adjusted MH2 broth and proceeded as described above.

Substance | development of antimicrobial resistance, SA [1] | hemolysis at 0.5 h [2] [%] | MIC [3] [µM] | MIC ([3]; listed as VBLQ19L) [µM] | MBC [3] [µM] | MBC ([3]; listed as VBLQ19L) | HFF-1 proliferation ([4]; certain concentrations) | cytotoxicity to HFF-1 ([4]; up to highest tested concentrations (peptide), 3% (H2O2)) | antibacterial effect against WHO priority pathogens [5] | MIC values against WHO priority pathogens (in words) ([5]; compared to pexiganan and antibiotics) | PA infection at wound site (CFU) [6] | MBC [7] [µM] | MIC [7] [µM]
KKLLKKWLKLSKKALKLALSL-NH2 [V8LQ19L] | effective in preventing the acquisition of AMR | ~0 | 1.56 | 1.58 | 1.56 | 1.58 µM and 1.56 µM | enhanced proliferation | noncytotoxic | potent fast-acting, broad-spectrum antibacterial effect | the lowest minimum inhibitory concentration (MIC) values | – | – | –
E1AM2: untagged (E1AM2), KKLLKKWVKLSKKALKLAQSL | – | – | – | – | – | – | – | – | – | – | effective reduction of PA infection; also recorded: significant bacterial clearance at the wound site | 3.125 | 3.125
